Assay results from paper PMC3552485 (ACS Chemical Biology, 2012).

Target: T1, TarO (N-acetylglucosamine-1-phosphate transferase) (Staphylococcus aureus, UniProt Q2G060)
T1 sequence (Q2G060 1-351): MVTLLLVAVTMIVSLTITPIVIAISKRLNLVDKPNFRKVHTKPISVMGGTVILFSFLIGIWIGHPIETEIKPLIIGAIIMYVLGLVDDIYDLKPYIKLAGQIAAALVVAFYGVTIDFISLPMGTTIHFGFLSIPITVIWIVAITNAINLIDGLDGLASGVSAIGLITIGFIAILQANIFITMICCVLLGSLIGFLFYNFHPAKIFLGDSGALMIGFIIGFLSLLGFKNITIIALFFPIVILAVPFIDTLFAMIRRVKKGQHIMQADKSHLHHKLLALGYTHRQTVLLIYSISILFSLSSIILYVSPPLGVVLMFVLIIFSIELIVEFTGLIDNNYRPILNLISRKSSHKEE
Type: biochemical

IC50: 238 ± 14 µM
SMILES: Clc1ccccc1CN1CCc2sccc2C1 [ticlopidine]
